Literature values, collected in patent US20190151293A1, “PHARMACEUTICAL COMPOSITION COMPRISING A NON-PURINE SELECTIVE INHIBITOR OF XANTHINE OXIDASE AND METHOD FOR THE PREPARATION THEREOF” (PHARMATHEN S.A., priority 2016, published 2019).
Like-named read-outs stand apart in the source and are kept apart here.

Key:
[1] = system: other enzymes involved in purine or pyrimidine metabolism; details: at therapeutic concentrations
xanthine oxidase (XO) = xanthine oxidase (XO) (Homo sapiens, UniProt P47989); details: oxidised and reduced forms of XO
Sequence of xanthine oxidase (XO) (P47989 whole entry): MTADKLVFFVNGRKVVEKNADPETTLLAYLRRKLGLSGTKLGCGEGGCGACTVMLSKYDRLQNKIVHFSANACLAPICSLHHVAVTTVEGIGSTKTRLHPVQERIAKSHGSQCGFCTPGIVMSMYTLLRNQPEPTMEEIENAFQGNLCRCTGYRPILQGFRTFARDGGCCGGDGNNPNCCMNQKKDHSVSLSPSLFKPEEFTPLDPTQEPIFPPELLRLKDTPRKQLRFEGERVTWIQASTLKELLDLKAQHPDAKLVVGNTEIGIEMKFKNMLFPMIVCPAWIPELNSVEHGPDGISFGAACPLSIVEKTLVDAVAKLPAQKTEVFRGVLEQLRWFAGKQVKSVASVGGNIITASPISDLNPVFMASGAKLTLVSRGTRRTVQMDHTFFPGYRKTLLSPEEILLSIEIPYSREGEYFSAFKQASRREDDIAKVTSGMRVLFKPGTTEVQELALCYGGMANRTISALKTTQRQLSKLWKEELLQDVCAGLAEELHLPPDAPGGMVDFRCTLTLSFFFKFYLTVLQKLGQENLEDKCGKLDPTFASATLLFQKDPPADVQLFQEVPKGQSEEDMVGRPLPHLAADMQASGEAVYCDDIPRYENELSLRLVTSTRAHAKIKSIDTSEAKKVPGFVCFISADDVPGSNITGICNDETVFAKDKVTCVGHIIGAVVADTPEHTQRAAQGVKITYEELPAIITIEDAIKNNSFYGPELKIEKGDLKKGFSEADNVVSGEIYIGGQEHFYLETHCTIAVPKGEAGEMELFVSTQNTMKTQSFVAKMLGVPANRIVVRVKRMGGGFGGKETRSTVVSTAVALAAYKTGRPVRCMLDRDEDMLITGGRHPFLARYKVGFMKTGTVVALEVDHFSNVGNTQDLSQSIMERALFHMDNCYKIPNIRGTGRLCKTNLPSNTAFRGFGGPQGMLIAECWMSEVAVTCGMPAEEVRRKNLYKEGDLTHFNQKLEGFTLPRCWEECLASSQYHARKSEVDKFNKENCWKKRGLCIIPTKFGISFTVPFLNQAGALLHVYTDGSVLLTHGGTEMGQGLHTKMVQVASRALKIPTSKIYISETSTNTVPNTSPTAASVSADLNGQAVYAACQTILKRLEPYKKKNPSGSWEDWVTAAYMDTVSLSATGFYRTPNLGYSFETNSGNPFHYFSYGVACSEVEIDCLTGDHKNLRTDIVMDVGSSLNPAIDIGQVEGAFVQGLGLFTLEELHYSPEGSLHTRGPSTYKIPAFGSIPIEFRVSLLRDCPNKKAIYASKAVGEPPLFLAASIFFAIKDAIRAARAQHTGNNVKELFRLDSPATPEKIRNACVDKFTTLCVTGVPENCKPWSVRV

Row | Compound | Solubility, dependence on pH (higher in alkalic media) | Solubility (in dimethylformamide) | Solubility (in dimethylsulfoxide) | Solubility (in ethanol) | Solubility (in water) | Inhibition of other enzymes involved in purine or pyrimidine metabolism [1] | Inhibition of XO (xanthine oxidase (XO)) | Solubility of the crystal form, in words
1 | Cc1nc(-c2ccc(OCC(C)C)c(C#N)c2)sc1C(=O)O [Febuxostat, 2-(3-cyano-4-isobutoxyphenyl)-4-methyl-1,3-thiazole-5-carboxylic acid] | pH dependent | freely soluble | soluble | sparingly soluble | practically insoluble | does not inhibit | inhibit both the oxidised and reduced forms of XO | –
2 | Cc1nc(-c2ccc(OCC(C)C)c(C#N)c2)sc1C(=O)O [Form C] | – | – | – | – | – | – | – | good solubility
